Data on 2 molecules can be found in patent US9845340B2, “Peptides that specifically bind HGF receptor (cMet) and uses thereof” (Dyax Corp., priority 2003, dated 2017).

Test [1] has as its target T1, 3T3 cells that over-express human cMet (Homo sapiens, UniProt P08581).
T1 construct: expressed in transfected cells; host or cells: 3T3 cells
As to the kind of experiment: Whole cell ELISA of peptide-displaying phage. It is filed as cell-based. The following applies: phage isolate; 3T3 cells expressing human cMet vs. non-expressing 3T3 cells. The gist of the method: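 3T3 cells over-expressing human cMet seeded 10^5/well, pelleted and fixed with 0.1% glutaraldehyde 12 min at 37 °C. Blocked peptide-displaying phage bound 1 h at room temperature; after PBST wash, bound phage detected with HRP-conjugated anti-M13 antibody.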

Another test concerns the target cMet-Fc fusion protein (Homo sapiens, UniProt P08581). As to the kind of experiment: Protein phage ELISA: peptide-displaying phage binding to soluble cMet-Fc versus TRAIL-Fc. The following applies: phage isolate; cMet-Fc vs. TRAIL-Fc. In a few lines: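 Plates coated with 0.5 μg/mL cMet-Fc or, as background, TRAIL-Fc, then blocked with 3% BSA in PBST. Peptide-displaying phage bound 2 h at room temperature. Detection with HRP-anti-M13 antibody.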
Background: An ELISA detects its analyte on a solid surface through an enzyme-linked reagent.

Another test relates to SK-LMS-1 cells. Briefly: Cellular proliferation assay (HGF-stimulated, BrdU incorporation). In kind it is cell-based. To be noted: peptide 10 μM, HGF 50 ng/mL or 100 ng/mL, FIG. 10. The method, then:
Cellular proliferation assays were performed to identify cMet-binding peptides that antagonize HGF-stimulated proliferation. These in vitro studies utilized a leomyosarcoma cell line, SK-LMS-1, in which cells proliferate in response to HGF. SK-LMS-1 cells were seeded on 96-well plates at a density of 2000 cells/well. After a 24 hour incubation at 37 C, the cells were starved in culture media containing 0.1% BSA instead of 10% fetal bovine serum for 36 hours at 37 C. Fresh starvation media with or without a cMet-binding peptide (10 μM) was added to the respective wells and the cells were incubated for 2 hours at 37 C. […] HGF was then added at a concentration of either 50 ng/mL or 100 ng/mL and the cells were incubated for an additional 12 hours at 37 C. Proliferation was assessed by measuring the incorporation of BrdU (Calbiochem, San Diego, Calif.) as described by the manufacturer. Results are shown for SEQ ID NO:365 (FIG. 10).

For test [2], the target named is T2, cMet-Fc fusion protein (or similar target) (Mus musculus, UniProt P16056).
T2 construct: Fc
T2 sequence (P16056 25-306 limits assumed): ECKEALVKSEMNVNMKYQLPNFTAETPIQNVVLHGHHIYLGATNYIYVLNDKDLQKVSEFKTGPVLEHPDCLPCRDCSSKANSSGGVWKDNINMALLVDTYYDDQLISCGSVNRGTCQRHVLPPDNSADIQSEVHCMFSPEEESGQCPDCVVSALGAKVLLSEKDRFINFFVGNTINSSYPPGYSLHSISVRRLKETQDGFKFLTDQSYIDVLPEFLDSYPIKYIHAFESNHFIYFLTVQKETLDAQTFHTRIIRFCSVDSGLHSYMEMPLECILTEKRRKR
T2 sequence (P16056 307-929 limits assumed): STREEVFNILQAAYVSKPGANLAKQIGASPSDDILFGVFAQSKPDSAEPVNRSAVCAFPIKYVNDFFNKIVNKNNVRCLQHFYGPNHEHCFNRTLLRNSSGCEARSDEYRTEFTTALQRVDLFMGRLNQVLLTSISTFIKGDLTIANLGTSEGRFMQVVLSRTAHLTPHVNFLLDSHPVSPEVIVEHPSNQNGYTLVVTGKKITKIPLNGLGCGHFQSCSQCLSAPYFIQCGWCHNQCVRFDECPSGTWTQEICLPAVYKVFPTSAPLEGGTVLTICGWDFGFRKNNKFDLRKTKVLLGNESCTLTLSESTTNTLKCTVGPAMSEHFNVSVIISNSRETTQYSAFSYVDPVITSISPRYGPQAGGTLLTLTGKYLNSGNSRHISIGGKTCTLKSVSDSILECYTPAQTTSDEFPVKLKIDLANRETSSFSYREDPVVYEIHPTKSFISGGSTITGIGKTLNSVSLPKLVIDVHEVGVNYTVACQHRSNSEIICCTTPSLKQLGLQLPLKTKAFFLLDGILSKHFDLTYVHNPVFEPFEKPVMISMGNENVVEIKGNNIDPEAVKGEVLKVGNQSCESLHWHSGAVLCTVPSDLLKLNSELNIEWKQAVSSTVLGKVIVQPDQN
Briefly: Fluorescence anisotropy / polarization direct binding, mouse cMet. To be noted: fluorescein-labeled peptide. Further details: key: NB = no binding. As for the experimental part: Fluorescence anisotropy measurements were performed in 384-well microplates in a volume of 10 μL in binding buffer (PBS, 0.01% Tween-20, pH 7.5) using a Tecan Polarion fluorescence polarization plate reader ([…]). The concentration of fluorescein-labeled peptide was held constant (20 nM) and the concentration of cMet-Fc fusion protein (or similar target) was varied. Binding mixtures were equilibrated for 10 minutes in the microplate at 30 C before measurement. The observed change in anisotropy was fit to the equation below via nonlinear regression to obtain the apparent KD. This equation (1) assumes that the synthetic peptide and cMet form a reversible complex in solution with 1:1 stoichiometry.
[formula] where robs is the observed anisotropy, rfree is the anisotropy of the free peptide, rbound is the anisotropy of the bound peptide, KD is the apparent dissociation constant, cMet is the total cMet concentration, and P is the total fluorescein-labeled peptide concentration. KD was calculated in a direct binding assay (KD,B) and therefore these values represent cMet binding to the fluorescein labeled peptide.
For orientation: In fluorescence polarisation assays a small probe gives low polarisation when free and higher when bound to something large.

cMet-Fc fusion protein, sequence (P08581 25-307 limits assumed): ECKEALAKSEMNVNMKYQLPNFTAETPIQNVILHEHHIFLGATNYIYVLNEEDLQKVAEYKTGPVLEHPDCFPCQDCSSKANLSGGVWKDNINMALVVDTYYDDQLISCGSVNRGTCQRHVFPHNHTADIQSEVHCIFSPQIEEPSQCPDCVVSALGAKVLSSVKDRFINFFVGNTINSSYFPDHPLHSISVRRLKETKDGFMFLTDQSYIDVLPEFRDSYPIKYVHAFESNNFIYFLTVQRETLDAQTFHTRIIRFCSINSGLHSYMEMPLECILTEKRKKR
cMet-Fc fusion protein, sequence (P08581 with tags, fused parts or gaps limits assumed): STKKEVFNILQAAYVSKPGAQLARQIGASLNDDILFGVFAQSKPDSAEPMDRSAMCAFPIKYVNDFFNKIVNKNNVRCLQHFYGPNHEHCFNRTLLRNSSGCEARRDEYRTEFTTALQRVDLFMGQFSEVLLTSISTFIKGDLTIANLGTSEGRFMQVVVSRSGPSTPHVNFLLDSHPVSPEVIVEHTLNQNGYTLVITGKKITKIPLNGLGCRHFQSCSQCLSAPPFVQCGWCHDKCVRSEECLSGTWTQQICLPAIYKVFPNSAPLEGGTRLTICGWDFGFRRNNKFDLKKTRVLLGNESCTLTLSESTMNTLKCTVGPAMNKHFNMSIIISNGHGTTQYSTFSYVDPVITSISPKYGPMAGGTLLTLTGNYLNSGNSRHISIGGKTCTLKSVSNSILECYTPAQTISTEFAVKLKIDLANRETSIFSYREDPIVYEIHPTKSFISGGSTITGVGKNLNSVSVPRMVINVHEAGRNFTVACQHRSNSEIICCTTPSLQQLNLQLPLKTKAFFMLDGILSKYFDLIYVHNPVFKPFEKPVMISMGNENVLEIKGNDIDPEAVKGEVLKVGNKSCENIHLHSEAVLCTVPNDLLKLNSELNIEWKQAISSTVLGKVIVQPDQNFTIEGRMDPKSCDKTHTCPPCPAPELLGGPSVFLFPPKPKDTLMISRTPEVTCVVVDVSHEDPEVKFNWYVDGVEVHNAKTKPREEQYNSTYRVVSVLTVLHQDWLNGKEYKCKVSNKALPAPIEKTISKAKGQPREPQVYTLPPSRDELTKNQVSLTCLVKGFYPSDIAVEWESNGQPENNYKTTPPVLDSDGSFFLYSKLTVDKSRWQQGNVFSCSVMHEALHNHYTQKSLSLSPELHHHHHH
T1 sequence (P08581 25-1390): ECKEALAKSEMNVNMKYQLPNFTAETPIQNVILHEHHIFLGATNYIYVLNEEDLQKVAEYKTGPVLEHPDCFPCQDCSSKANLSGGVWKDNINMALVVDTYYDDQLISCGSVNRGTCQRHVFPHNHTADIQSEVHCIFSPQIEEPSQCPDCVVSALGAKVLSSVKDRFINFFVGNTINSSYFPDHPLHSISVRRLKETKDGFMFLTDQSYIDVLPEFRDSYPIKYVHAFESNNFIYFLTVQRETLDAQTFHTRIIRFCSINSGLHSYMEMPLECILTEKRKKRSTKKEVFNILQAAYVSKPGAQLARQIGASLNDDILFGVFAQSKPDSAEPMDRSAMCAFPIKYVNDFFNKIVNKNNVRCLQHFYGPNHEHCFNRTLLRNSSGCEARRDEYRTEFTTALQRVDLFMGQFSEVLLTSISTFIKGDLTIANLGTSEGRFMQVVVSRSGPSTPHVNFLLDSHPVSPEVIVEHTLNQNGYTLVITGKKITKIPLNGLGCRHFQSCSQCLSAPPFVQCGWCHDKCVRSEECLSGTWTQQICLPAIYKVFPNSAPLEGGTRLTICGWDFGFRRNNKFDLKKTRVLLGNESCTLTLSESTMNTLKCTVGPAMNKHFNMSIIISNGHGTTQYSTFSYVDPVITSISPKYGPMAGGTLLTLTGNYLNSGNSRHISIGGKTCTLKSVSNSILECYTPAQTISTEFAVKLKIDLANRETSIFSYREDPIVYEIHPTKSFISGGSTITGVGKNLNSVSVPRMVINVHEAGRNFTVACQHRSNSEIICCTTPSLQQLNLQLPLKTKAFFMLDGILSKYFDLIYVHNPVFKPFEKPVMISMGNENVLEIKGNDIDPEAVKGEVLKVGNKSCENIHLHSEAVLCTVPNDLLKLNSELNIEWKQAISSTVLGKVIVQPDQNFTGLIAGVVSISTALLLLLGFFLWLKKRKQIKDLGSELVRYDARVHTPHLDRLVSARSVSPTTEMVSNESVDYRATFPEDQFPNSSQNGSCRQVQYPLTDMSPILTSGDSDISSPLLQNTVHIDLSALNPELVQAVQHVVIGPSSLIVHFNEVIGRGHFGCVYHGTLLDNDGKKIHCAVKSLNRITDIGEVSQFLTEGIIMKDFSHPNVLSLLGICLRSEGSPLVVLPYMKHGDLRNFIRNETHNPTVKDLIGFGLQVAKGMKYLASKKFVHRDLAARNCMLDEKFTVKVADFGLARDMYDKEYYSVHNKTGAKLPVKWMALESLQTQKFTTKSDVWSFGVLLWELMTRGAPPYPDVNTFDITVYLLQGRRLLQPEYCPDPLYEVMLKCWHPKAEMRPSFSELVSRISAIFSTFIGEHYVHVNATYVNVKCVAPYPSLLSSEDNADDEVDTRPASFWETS

Regarding “GSWRFCGGEYSFQVCQDVAP (Synthetically generated cMet-binding peptide sequence) [SEQ ID NO: 365]”, the “WC ELISA” value in test [1] is 1.33 fold over background. The “Protein ELISA” value in the test with cMet-Fc fusion protein came to 26.3 fold over background. In addition, the “growth inhibitory properties (HGF-stimulated proliferation)” value with SK-LMS-1 cells is given as “growth inhibitory properties”.
As for `CC[C@H](C)[C@@H]1NC(=O)[C@H](CCCNC(=N)N)NC(=O)[C@H](Cc2c[nH]c3ccccc23)NC(=O)[C@@H](NC(=O)[C@@H]2CCCN2C(=O)[C@H](Cc2ccccc2)NC(=O)[C@H](Cc2ccccc2)NC(=O)[C@H](CO)NC(=O)CNC(C)=O)CSSC[C@@H](C(=O)N[C@@H](Cc2c[nH]cn2)C(=O)N[C@@H](C)C(=O)N[C@@H](CC(N)=O)C(=O)N[C@@H](C)C(=O)N2CCC[C@H]2C(=O)NCC(=O)NCC(=O)NCC(=O)N[C@@H](CCCCNC(=O)c2ccc3c(c2)C(=O)OC32c3ccc(O)cc3Oc3cc(O)ccc32)C(N)=O)NC(=O)[C@H](Cc2ccc(O)cc2)NC(=O)CNC(=O)[C@H](Cc2ccccc2)NC(=O)[C@H](CCCNC(=N)N)NC(=O)[C@H](CC(=O)O)NC1=O` [SEQ ID NO: 370], in test [2], the “Kd (mouse)” value is “NB”. For the same molecule, in test [1], the “WC ELISA” value is reported as 1.87 fold over background. In addition, the “Protein ELISA” value at cMet-Fc fusion protein was 13.3 fold over background.
